Measured values reported in patent publication US11224604B2, “Treatment of graft versus host disease in transplant patients” (PRIOTHERA LIMITED, priority 2013, dated 2022).

Tested on: lethal GvHD in mice
Experiment: lethal GvHD in mice (BALB/c splenic cells into cyclophosphamide-treated BDF1 mice)
Type: in vivo
Conditions: day 1 to day 20
Protocol: Female BALB/cAnNCrj mice and female Crj:BDF1 mice were purchased from CHARLES RIVER JAPAN and used at 10 weeks of age as donors and recipients, respectively.
Spleens were collected from donor BALB/c mice. […] The single cell suspension was passed through a cell strainer (70 um, FALCON). The filtrate was centrifuged to collect the cell pellet. […] The number of nucleated cells in the suspension was calculated by staining using Turk's solution. […] This suspension served as a splenic cell suspension.
Recipient BDF1 mice were treated with a dose of cyclophosphamide (SHIONOGI & CO., LTD.) at 300 mg/kg intraperitoneally on day0. One day after cyclophosphamide treatment, the BDF1 mice were intravenously injected with 0.25 mL
(5×10^7 cells/mouse) of the splenic cell suspension from BALB/c mice to induce lethal GvHD.
Treatment with a Compound (Control/CsA/KRP203)
The compounds were orally administrated once a day from day 1 (just after injection of the splenic cells) to day 20. The mice were observed until day 70.

## NC(CO)(CO)CCc1ccc(Sc2cccc(OCc3ccccc3)c2)cc1Cl [KRP-203, 2-amino-2-[4-(3-benzyloxyphenylthio)-2-chlorophenyl]ethyl-propane-1,3-diol]
KRP-203 0.01 mg/kg orally once a day, Day 5 after injection of the splenic cells
  % Survival: 100%
KRP-203 0.01 mg/kg orally once a day, Day 8 after injection of the splenic cells
  % Survival: 89%
KRP-203 0.01 mg/kg orally once a day, Day 10 after injection of the splenic cells
  % Survival: 67%
KRP-203 0.01 mg/kg orally once a day, Day 12 after injection of the splenic cells
  % Survival: 44%
KRP-203 0.01 mg/kg orally once a day, Day 20 after injection of the splenic cells
  % Survival: 44%
KRP-203 0.01 mg/kg orally once a day, Day 25 after injection of the splenic cells
  % Survival: 44%
KRP-203 0.01 mg/kg orally once a day, Day 30 after injection of the splenic cells
  % Survival: 44%
KRP-203 0.01 mg/kg orally once a day, Day 40 after injection of the splenic cells
  % Survival: 33%
KRP-203 0.01 mg/kg orally once a day, Day 70 after injection of the splenic cells
  % Survival: 33%
KRP-203 0.03 mg/kg orally once a day, Day 5 after injection of the splenic cells
  % Survival: 100%
KRP-203 0.03 mg/kg orally once a day, Day 8 after injection of the splenic cells
  % Survival: 100%
KRP-203 0.03 mg/kg orally once a day, Day 10 after injection of the splenic cells
  % Survival: 100%
KRP-203 0.03 mg/kg orally once a day, Day 12 after injection of the splenic cells
  % Survival: 100%
KRP-203 0.03 mg/kg orally once a day, Day 20 after injection of the splenic cells
  % Survival: 100%
KRP-203 0.03 mg/kg orally once a day, Day 25 after injection of the splenic cells
  % Survival: 100%
KRP-203 0.03 mg/kg orally once a day, Day 30 after injection of the splenic cells
  % Survival: 100%
KRP-203 0.03 mg/kg orally once a day, Day 40 after injection of the splenic cells
  % Survival: 100%
KRP-203 0.03 mg/kg orally once a day, Day 70 after injection of the splenic cells
  % Survival: 100%
KRP-203 0.1 mg/kg orally once a day, Day 5 after injection of the splenic cells
  % Survival: 100%
KRP-203 0.1 mg/kg orally once a day, Day 8 after injection of the splenic cells
  % Survival: 100%
KRP-203 0.1 mg/kg orally once a day, Day 10 after injection of the splenic cells
  % Survival: 100%
KRP-203 0.1 mg/kg orally once a day, Day 12 after injection of the splenic cells
  % Survival: 100%
KRP-203 0.1 mg/kg orally once a day, Day 20 after injection of the splenic cells
  % Survival: 100%
KRP-203 0.1 mg/kg orally once a day, Day 25 after injection of the splenic cells
  % Survival: 100%
KRP-203 0.1 mg/kg orally once a day, Day 30 after injection of the splenic cells
  % Survival: 100%
KRP-203 0.1 mg/kg orally once a day, Day 40 after injection of the splenic cells
  % Survival: 100%
KRP-203 0.1 mg/kg orally once a day, Day 70 after injection of the splenic cells
  % Survival: 100%
KRP-203 0.3 mg/kg orally once a day, Day 5 after injection of the splenic cells
  % Survival: 100%
KRP-203 0.3 mg/kg orally once a day, Day 8 after injection of the splenic cells
  % Survival: 100%
KRP-203 0.3 mg/kg orally once a day, Day 10 after injection of the splenic cells
  % Survival: 100%
KRP-203 0.3 mg/kg orally once a day, Day 12 after injection of the splenic cells
  % Survival: 100%
KRP-203 0.3 mg/kg orally once a day, Day 20 after injection of the splenic cells
  % Survival: 100%
KRP-203 0.3 mg/kg orally once a day, Day 25 after injection of the splenic cells
  % Survival: 100%
KRP-203 0.3 mg/kg orally once a day, Day 30 after injection of the splenic cells
  % Survival: 100%
KRP-203 0.3 mg/kg orally once a day, Day 40 after injection of the splenic cells
  % Survival: 100%
KRP-203 0.3 mg/kg orally once a day, Day 70 after injection of the splenic cells
  % Survival: 100%
KRP-203 1 mg/kg orally once a day, Day 5 after injection of the splenic cells
  % Survival: 100%
KRP-203 1 mg/kg orally once a day, Day 8 after injection of the splenic cells
  % Survival: 100%
KRP-203 1 mg/kg orally once a day, Day 10 after injection of the splenic cells
  % Survival: 100%
KRP-203 1 mg/kg orally once a day, Day 12 after injection of the splenic cells
  % Survival: 100%
KRP-203 1 mg/kg orally once a day, Day 20 after injection of the splenic cells
  % Survival: 100%
KRP-203 1 mg/kg orally once a day, Day 25 after injection of the splenic cells
  % Survival: 100%
KRP-203 1 mg/kg orally once a day, Day 30 after injection of the splenic cells
  % Survival: 100%
KRP-203 1 mg/kg orally once a day, Day 40 after injection of the splenic cells
  % Survival: 100%
KRP-203 1 mg/kg orally once a day, Day 70 after injection of the splenic cells
  % Survival: 100%
